The values below come from paper PMC5582420, “Hirsutine, an Indole Alkaloid of Uncaria rhynchophylla, Inhibits Late Step in Dengue Virus Lifecycle” (Frontiers in Microbiology, 2017).

Data set [1] concerns DENV-NS3 protein expression, DENV-1. In words: Western blot of DENV-NS3 protein in DENV-1-infected A549 cells. In kind it is cell-based, Dengue virus. The conditions noted are these: MOI 0.1 and 1.0, 18 hpi. As to the method: Western blotting was performed as described previously ([Hishiki et al., 2014]). Briefly, DENV-1-infected A549 cells were co-cultured with 10 μM hirsutine, 100 μM ribavirin, or 10 μM bromocriptine. Protein samples were separated by SDS-PAGE and transferred to polyvinylidene fluoride blotting membranes (GE Healthcare, Little Chalfont, United Kingdom). Anti-NS3 rabbit polyclonal antibodies (GTX124252; GeneTex, Irvine, CA, United States) and anti-glyceraldehyde-3-phosphate dehydrogenase (GAPDH) mouse monoclonal antibodies (MAB374; Millipore, Billerica, MA, United States) were used as primary antibodies.
A549 cells were infected with DENV-1 at a MOI of 0.1 and 1.0 in the presence of 10 μM hirsutine (Hi), 100 μM ribavirin (Ri), or 10 μM bromocriptine (Br). Cell lysate was collected 18 h post-infection, and DENV-NS3 (top) and GAPDH (bottom) protein expression levels were assessed by Western blot.
In general terms: A western blot detects proteins with antibodies after separation by electrophoresis.

The test system of the next data set is DENV-3 (09-59 strain). In words: Virus titer by plaque assay in infected A549 cells, DENV-3. The conditions noted are these: 10 μM, MOI 0.01, supernatant 72 hpi. Type of data set: cell-based, Dengue virus. The method, then:
(§1) The viruses used in this study included DENV-1 (02-20 strain) ([Tajima et al., 2006]), DENV-2 (16681 strain), DENV-3 (09-59 strain), and DENV-4 (09-48 strain). The strains were cultured in Vero cells, and stored at -80°C. Dengue virus titer was determined by plaque assay as summarized below.
(§2) Baby hamster kidney-21 cells were cultured in a 12-well plate and infected with serial dilutions of virus suspension, then incubated at 37°C for 1 h. At 1 hpi, cells were incubated in EMEM containing 2% FBS and 1% methylcellulose. After 5 days of incubation, the cells were fixed with paraformaldehyde and stained with methylene blue. Virus titer was calculated as plaque-forming units (PFU)/mL. The half-maximal effective concentration (EC50) against each virus was calculated using the Reed and Muench method.
(§3) FIGURE 1 Hirsutine inhibits replication of dengue virus serotypes DENV-1–4. (A) Structural formula of hirsutine. (B) Hirsutine inhibits viral replication of all four serotypes. A549 cells were infected with DENV-1–4 at a multiplicity of infection (MOI) of 0.01 in the presence of 10 μM hirsutine. Cell culture supernatants were collected 72 hpi, and viral titers were determined by plaque assay. All data were normalized to their control (0 μM of hirsutine).

The test system of data set [2] is influenza A virus (subtype H3N2). Also noted: method as in Takayama et al., 1997; Tietze and Zhou, 1999. The conditions noted are these: ref Takayama et al., 1997, Tietze and Zhou, 1999; cited from earlier work.
The next data set deals with DENV-2 (16681 strain). Description: Virus titer by plaque assay in infected A549 cells, DENV-2. The conditions noted are these: 10 μM, MOI 0.01, supernatant 72 hpi. In kind it is cell-based, Dengue virus. The method, then:
as §1, §2, §3

The next data set is described as follows: MTT cytotoxicity assay. To be noted: human, compounds, A549 cells, 3-day incubation. In kind it is cell-based. As to the method:
Human lung carcinoma cells (A549) and baby hamster kidney cells (BHK-21) were maintained in Eagle’s minimum essential medium (EMEM; Life Technologies, Carlsbad, CA, United States) supplemented with 10% fetal bovine serum (FBS; JR Scientific, Woodland, CA, United States), penicillin, and streptomycin sulfate (Nacalai Tesque, Kyoto, Japan) at 37°C with 5% CO2. Hybridoma-producing anti-E antibody (HB-112) was maintained in RPMI 1640 medium (Life Technologies, Carlsbad, CA, United States) supplemented with 10% FBS and antibiotics at 37°C with 5% CO2.
Cell viability was assessed by 3-(4,5-dimethylthiazol-2-yl)-2,5-diphenyltetrazolium bromide (MTT) assay. A549 cells were cultured in a 96-well plate with the selected compound (0–10 μM) or extract (0–100 μg/mL). After a 3-day incubation, 30 μL of 0.5% MTT solution was added to each well. After incubation for 3 h, the supernatant was replaced with 100 μL of methanol with 1% Triton X-100, and then vortexed to dissolve the formazan. Absorbance at 565 nm and reference at 655 nm were measured using a microplate reader (Berthold Technologies, Bad Wildbad, Germany). The half-maximal cytotoxicity concentration (CC50) was calculated using the Reed and Muench method ([Reed and Muench, 1938]).
In general terms: Tetrazolium assays rely on reduction of a dye to a coloured formazan, in cell work by metabolically active cells.

The subject of data set [3] is DENV-1 (02-20 strain). In words: Virus titer by plaque assay in infected A549 cells, DENV-1. Type of data set: cell-based, Dengue virus. To be noted: 10 μM, MOI 0.01, supernatant 72 hpi. The method, then: as §1, §2, §3
In data set [4] the test system is DGL2 and DGL2-mut DENV-1 replicon. In words: Transient subgenomic reporter replicon assay (Gaussia luciferase). To be noted: 10 μM, A549 cells.
Description: A549 cells were cultured in a 24-well plate and transfected with DGL2 and DGL2-mut using X-tremeGENE HP DNA transfection reagent (Roche, Basel, Switzerland); 10 μM of hirsutine was added at baseline. The cell culture medium was collected and replaced with fresh medium containing 10 μM of hirsutine every 24 h. The Gaussia luciferase activity in the culture medium was measured using a microplate reader.
(A) Schematic representation of the replicon system, which uses DGL2 and DGL2-mut. DGL2-mut was inserted in non-replicative mutation into RNA-dependent RNA polymerase (RdRp). CMVp, cytomegalovirus promoter; Gluc, secretory Gaussia luciferase; IRES, internal ribosome entry site; GAA, mutation in the active center for RdRp; and Rib, ribozyme sequence. (B) Replicon plasmids DGL2 and DGL2-mut were transfected to A549 cells in the presence of 10 μM hirsutine. After 24 and 72 h, luciferase activity in the culture supernatant was analyzed. Each data point represents the mean ± standard deviation from triplicate experiments.
Data set [5] concerns DENV-1. In words: Time-of-drug-elimination assay. Type of data set: cell-based, Dengue virus. To be noted: 10 μM, A549, MOI 1.0, titer at 24 hpi. The method, then: Next, the cells were rinsed with phosphate-buffered saline twice, and fresh medium containing 10 μM hirsutine was added. At 2, 4, and 6 hpi, the cells were rinsed with phosphate-buffered saline twice and fresh medium was added. At 24 hpi, the cell culture supernatant was collected, and viral titer was measured by plaque assay.
(§4) FIGURE 2 Hirsutine inhibits the late stage of the dengue virus lifecycle. (A) Time-of-drug-addition assay. Hirsutine (10 μM) was added at 0, 2, 4, 6, 8, 12, and 18 h post-DENV-1 infection. After 24 h, virus titers in the culture supernatant were analyzed by plaque assay. (B) Time-of-drug-elimination assay. Hirsutine (10 μM) was treated for 0–2, 0–4, and 0–6 h post-DENV-1 infection. After 24 h, virus titers in the culture supernatant were analyzed by plaque assay. ^∗p < 0.05. […] DMSO, dimethyl sulfoxide; hpi, hours post-infection; and PFU, plaque-forming units.

Data set [6] concerns DENV-1 (02-20 strain). In words: Plaque assay, EC50 against DENV-1 (fourth screening). Type of data set: cell-based, Dengue virus. The conditions noted are these: compounds; for pEC50: Dengue virus, DENV1, against DENV-1, plaque assay, Reed and Muench method; for SI: selectivity index from CC50 and EC50.
For data set [7], the system named is DENV-1. In words: Time-of-drug-addition assay. Type of data set: cell-based, Dengue virus. The conditions noted are these: 10 μM added at 0, 2, 4, 6, 8, 12, 18 hpi; A549, MOI 1.0; titer at 24 hpi. As to the method: Next, the cells were rinsed twice with phosphate-buffered saline, and fresh medium was added. At 0, 2, 4, 6, 8, 12, and 18 hpi, hirsutine at a final concentration of 10 μM was added to the infected cells. At 24 hpi, the cell culture supernatant was collected, and viral titer was assessed by plaque assay.
as §4

The next data set has as its system DENV-4 (09-48 strain). In words: Virus titer by plaque assay in infected A549 cells, DENV-4. The conditions noted are these: 10 μM, MOI 0.01, supernatant 72 hpi. In kind it is cell-based, Dengue virus. The method, then: as §1, §2, §3

In general, CC50 refers to the concentration that lowers cell viability or growth by half. Low values mean harm at low concentration, high ones better tolerance by the cells. A word on the pEC50: it is the EC50 on a negative log10 scale, so that one unit is a factor of ten.

Each structure is given as a SMILES string. pEC50: −log10 of the molar value.

`CC(C)C[C@H]1C(=O)N2CCC[C@H]2[C@]2(O)O[C@](NC(=O)[C@@H]3C=C4c5cccc6[nH]c(Br)c(c56)C[C@H]4N(C)C3)(C(C)C)C(=O)N12` [bromocriptine]: the “NS3 protein expression levels” value in data set [1] (10 μM) is “decreased significantly”.

Turning to `CC[C@H]1CN2CCc3c([nH]c4ccccc34)[C@H]2C[C@@H]1/C(=C\OC)C(=O)OC` [Hirsutine], the virus titer entry in the data set on DENV-3 (09-59 strain), with DENV-2 (16681 strain), with DENV-1 (02-20 strain) [3] and in the data set with DENV-4 (09-48 strain) was “decreased” each time. In data set [2], the “EC50 more effective than ribavirin” value was “over 10 fold”. In addition, the “NS3 protein expression levels” value in data set [1] (10 μM) is given as “did not change”. The compound further yielded a CC50 at 3 day in “MTT cytotoxicity assay” above 10 µM. In addition, the “Gaussia luciferase activity in culture supernatant” value in data set [4] (DGL2, 24 h and 72 h post-transfection) is “did not reduce luciferase activity levels”; in [4] (non-replicate DGL2-mut, 24 h and 72 h post-transfection) it was “did not reduce luciferase activity levels”. Further, the “virus titer in culture supernatant, time-of-drug-elimination” value with DENV-1 [5] (2-h treatment) was “did not decrease the virus titer”; with DENV-1 [5] (4-h treatment), “did decrease”. In addition, in the data set with DENV-1 (02-20 strain) [6], the pEC50 is 5.71. Moreover, the SI with DENV-1 (02-20 strain) [6] is listed as above 5.3. In addition, the “virus titer in culture supernatant, time-of-drug-addition” value in the data set with DENV-1 [7] is given as “reduced the virus titer significantly up to 12 hpi”.

`C[C@H]1CC[C@@]2(OC1)O[C@H]1C[C@H]3[C@@H]4CC[C@@H]5C[C@@H](O[C@@H]6O[C@H](CO)[C@H](O)[C@H](O)[C@H]6O[C@@H]6O[C@H](CO)[C@@H](O)[C@H](O)[C@H]6O)CC[C@]5(C)[C@H]4CC[C@]3(C)[C@H]1[C@@H]2C` [Timosaponin-AIII] came in with a CC50 at 3 day in “MTT cytotoxicity assay” above 10 µM. In the data set on DENV-1 (02-20 strain) [6], this compound showed a pEC50 of 5.77 and an SI above 5.9.

For `NC(=O)c1ncn([C@@H]2O[C@H](CO)[C@@H](O)[C@H]2O)n1` [ribavirin], in [1] (100 μM), the “NS3 protein expression levels” value is “decreased significantly”.
